The test has as its target human PSMA (Homo sapiens (Human), UniProt Q04609). The test is described as follows: Enzymatic assay for in vitro evaluation of PSMA inhibitors (fluorescent assay of PSMA activity, NAAG substrate, OPA detection of glutamate). The class given is biochemical. The settings on record: compound at 10 μM.

Chain of human PSMA (Q04609 whole entry): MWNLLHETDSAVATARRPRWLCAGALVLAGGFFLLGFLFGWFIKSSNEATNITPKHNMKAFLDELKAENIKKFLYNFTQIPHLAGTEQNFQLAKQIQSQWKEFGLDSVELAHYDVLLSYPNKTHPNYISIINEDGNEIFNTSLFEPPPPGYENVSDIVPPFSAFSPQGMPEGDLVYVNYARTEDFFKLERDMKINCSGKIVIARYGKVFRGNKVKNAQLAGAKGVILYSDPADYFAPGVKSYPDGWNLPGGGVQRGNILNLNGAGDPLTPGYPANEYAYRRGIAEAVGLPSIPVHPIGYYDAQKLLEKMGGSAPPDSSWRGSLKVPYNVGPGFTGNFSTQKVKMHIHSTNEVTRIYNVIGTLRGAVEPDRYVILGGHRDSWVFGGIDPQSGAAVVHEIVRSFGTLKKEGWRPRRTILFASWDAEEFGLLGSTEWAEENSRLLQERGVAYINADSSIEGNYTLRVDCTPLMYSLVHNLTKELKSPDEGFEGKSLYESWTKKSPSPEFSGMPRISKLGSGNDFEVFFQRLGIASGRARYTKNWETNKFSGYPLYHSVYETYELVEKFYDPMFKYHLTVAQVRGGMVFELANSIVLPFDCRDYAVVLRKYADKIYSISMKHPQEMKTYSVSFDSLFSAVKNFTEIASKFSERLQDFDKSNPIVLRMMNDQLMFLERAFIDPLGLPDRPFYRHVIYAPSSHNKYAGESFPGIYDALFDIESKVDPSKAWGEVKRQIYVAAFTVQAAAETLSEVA

Turning to `O=C(O)CC[C@H](NC(=O)N(CCc1ccccc1)CC(=O)O)C(=O)O` [P010, (S)-2-(3-(Carboxymethyl)-3-phenethylureido)pentanedioic Acid], the “PSMA Blkg % (10 μM)” value worked out at 0%.
To `CCC1(CC)C(=O)N([C@@H](CCCCn2cc(CCCF)nn2)C(=O)O)C(=O)N([C@@H](CCC(=O)O)C(=O)O)C1=O` [P150, (S)-2-(3-((S)-1-Carboxy-5-(4-(3-fluoropropyl)-1H-1,2,3-triazol-1-yl)pentyl)-5,5-diethyl-2,4,6-trioxotetrahydropyrimidin-1(2H)-yl)pentanedioic Acid] belongs 9%.

The record behind these values is US10894807B2 (Siemens Medical Solutions USA, Inc., priority 2011, dated 2021).
